Patent US20130065868A1, “ANXIOYTIC MARCGRAVIACEAE COMPOSITIONS CONTAINING BETULINIC ACID, BETULINIC ACID DERIVATIVES, AND METHODS” (UNIVERSITY OF OTTAWA, priority 2002, published 2013)

Assays:
[1] = Elevated plus maze, betulinic acid vs structurally related compounds (Example 11); assay type: in vivo
Description: This example compares the anxiolytic activity of betulinic acid and some other structurally related compounds. Results are illustrated in FIG. 7.

Solubility = assay type: physicochemical; conditions: in water and in methanol
Sprague Dawley rats = experiment: Locomotor activity after chronic administration; assay type: in vivo, rat; conditions: chronic 0.5 mg/kg daily orally, one night 5 p.m. to 7 a.m. (FIG. 11)
Method: Test animals and drug treatments were as in Example 14. Locomotor activity was recorded for one night (5 p.m. to 7 a.m. the following morning) in the control as well as in the betulinic acid and methyl ester of betulinic acid exposed groups. Locomotor activity was monitored using infrared sensors located on the roof of the animals' cage. Eight independent sensors monitored activity of animals according to the number of quadrants traversed.

[2] = Weight gain over chronic treatment; assay type: in vivo, rat; conditions: rats, chronic 0.5 mg/kg daily orally (FIG. 12)
Sprague-Dawley rats = experiment: Rat social interaction paradigm; assay type: in vivo; conditions: 0.5 mg/kg i.p.
Description: The rat social interaction paradigm takes advantage of rats' natural behaviour in novel situations. The more ‘anxious’ the animals are, the less likely they are engage in social interaction with the cohort. Anxiolytic drugs typically increase the amount of time rodents spend socially interacting with one another. (Pile, S. E., (1980). The use of social interaction as a method for detecting anxiolytic activity of chlor-diazepoxide-like drugs. In Current Protocols in Neuroscience (pp. 8.3.3-8.3.4), John-Wiley & Sons).
The social-interaction (SI) test arena constituted of a 60×60 cm white Plexiglas floor, enclosed by 35-cm high walls of the same material. The arena was surrounded by black curtain, and a closed circuit camera was positioned above the setup, to feed live video signals to the experimenter seated in a separate room, for behavioral assessment and recording.
Each rat was placed alone in the SI box for 7.5 min daily for 2 days, in order to familiarize the animals with the test environment. Animals were paired according to their body weights (less than 10 g difference) and each pair was randomly assigned to one of the treatment groups. Rats received either betulinic acid 0.5 mg/kg i.p., betulinic acid methyl ester (methyl betulinate) 0.5 mg/kg i.p., or peanut oil only (control). Drugs were injected (i.p.) 60 min prior to testing. Tests were carried out at three intervals, 1 h, 2.5 h and 4 h after injection. Each pair was tested at the 1-h interval, then new pairs from within the same drug group were formed for the 2.5-h interval and then again at the 4-h interval (new pairs were formed for each test interval, to control for the potential confounding effect partner familiarity). […] The behaviors scored included the amount of time the pairs spent interacting together (sniffing, grooming and chasing) as well as the number of times the animals initiated contact.

SMILES: CC1(C)CC[C@]2(C)CC[C@]3(C)C(=CC[C@@H]4[C@@]5(C)CC[C@H](O)C(C)(C)[C@@H]5CC[C@]43C)[C@@H]2C1 [beta-amyrin]
- anxiolytic activity on the elevated plus maze paradigm ([1]; 5 mg/kg (FIG. 7)): neither beta-amyrin (5 mg/kg) nor oleanolic acid (0.5 mg/kg), two compounds structurally related to betulinic acid, displayed any anxiolytic activity

SMILES: C=C(C)C1CCC2(C(=O)[O-])CCC3(C)C(CCC4C5(C)CCC(O)C(C)(C)C5CCC43C)C12.[Na+] (centres unmarked) [sodium salt of betulinic acid]
- solubility relative to pure betulinic acid (Solubility): greater in water and in methanol than pure betulinic acid

SMILES: C=C(C)[C@@H]1CC[C@]2(C(=O)OC)CC[C@]3(C)[C@H](CC[C@@H]4[C@@]5(C)CC[C@H](O)C(C)(C)[C@@H]5CC[C@]43C)[C@@H]12 [betulinic acid methyl ester, Methyl betulinate]
- adverse effect on locomotor activity or pattern (Sprague Dawley rats): neither betulinic acid nor the methyl ester of betulinic acid had an adverse effect on locomotor activity or pattern
- effect of chronic drug treatment on weight gain [2]: did not seem to affect weight gain in a significant manner
- frequency of initiated contact (Sprague-Dawley rats): not significant
- amount of social interaction (interaction time) compared to the control group (Sprague-Dawley rats; data collapsed across 1 h, 2.5 h and 4 h (FIG. 8)): significantly increased the amount of social interaction
- increase of social interaction compared to betulinic acid (Sprague-Dawley rats; p<0.05): significantly more effective at increasing social interaction than betulinic acid

SMILES: CC1(C)CC[C@]2(C(=O)O)CC[C@]3(C)C(=CC[C@@H]4[C@@]5(C)CC[C@H](O)C(C)(C)[C@@H]5CC[C@]43C)[C@@H]2C1 [oleanolic acid]
- anxiolytic activity on the elevated plus maze paradigm ([1]; 0.5 mg/kg): neither beta-amyrin (5 mg/kg) nor oleanolic acid (0.5 mg/kg), two compounds structurally related to betulinic acid, displayed any anxiolytic activity
